Results reported in patent publication US10450297B2, “Sulfonyl amide derivatives for the treatment of abnormal cell growth” (Pfizer, Inc., priority 2007, dated 2019).

Target: FAK kinase (catalytic construct FAK(410-689)) (Homo sapiens (Human), UniProt Q05397)
Assay: FAKcd kinase ELISA (inhibition of poly-glu-tyr phosphorylation by FAK(410-689))
Assay type: biochemical
Settings: 50 μM final ATP

Sequence of FAK kinase (catalytic construct FAK(410-689)) (Q05397 410-689): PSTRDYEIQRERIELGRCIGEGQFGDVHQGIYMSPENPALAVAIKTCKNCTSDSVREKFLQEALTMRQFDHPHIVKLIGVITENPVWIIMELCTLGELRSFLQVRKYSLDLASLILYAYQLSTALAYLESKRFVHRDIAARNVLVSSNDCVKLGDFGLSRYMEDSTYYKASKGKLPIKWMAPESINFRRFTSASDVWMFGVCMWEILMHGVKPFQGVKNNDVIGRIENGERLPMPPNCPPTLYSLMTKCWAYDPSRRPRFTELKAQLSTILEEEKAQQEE

IC50 | Compound
< 0.595 nM | CNCc1ccc(Nc2ncc(C(F)(F)F)c(NCc3ccccc3N(C)S(C)(=O)=O)n2)cc1 [Compound 415, N-methyl-N-[2-({[2-({4-[(methylamino)methyl]phenyl}amino)-5-(trifluoromethyl)pyrimidin-4-yl]amino}methyl)phenyl]methanesulfonamide]
1.25 nM | CN(c1ncccc1CNc1nc(Nc2ccc(C(=O)NC[C@H]3CCCO3)cc2)ncc1C(F)(F)F)S(C)(=O)=O [Compound 238, 4-({4-[({2-[methyl(methylsulfonyl)amino]pyridin-3-yl}methyl)amino]-5-(trifluoromethyl)pyrimidin-2-yl}amino)-N-[(2R)-tetrahydrofuran-2-ylmethyl]benzamide]
17.6 nM | CS(=O)(=O)c1cccc(CNc2nc(Nc3ccc(S(N)(=O)=O)cc3)ncc2Br)c1 [Compound 35, 4-[(5-bromo-4-{[3-(methylsulfonyl)benzyl]amino}pyrimidin-2-yl)amino]benzene-sulfonamide]
0.6 nM | Cc1ccnc(N(C)S(C)(=O)=O)c1CNc1nc(Nc2ccccc2)ncc1C(F)(F)F [Compound 78, N-[3-({[2-anilino-5-(trifluoromethyl)pyrimidin-4-yl)amino}methyl)-4-methylpyridin-2-yl]-N-methylmethanesulfonamide]
15.8 nM | CN(c1ncccc1CNc1nc(Nc2ccc(C(F)(F)F)nc2)ncc1C(F)(F)F)S(C)(=O)=O [Compound 81, N-methyl-N-[3-({[5-(trifluoromethyl)-2-{[6-(trifluoromethyl)pyridin-3-yl]amino}pyrimidin-4-yl]amino}methyl)pyridin-2-yl]methanesulfonamide]
2.92 nM | Cc1ccc(CNc2nc(Nc3ccc(C(=O)N(C)C)cc3)ncc2C(F)(F)F)c(NS(C)(=O)=O)c1 [Compound 226, N,N-dimethyl-4-{[4-({4-methyl-2-[(methylsulfonyl)amino]benzyl}amino)-5-(trifluoromethyl)pyrimidin-2-yl]amino}benzamide]
0.6 nM | Cc1ccc(N(C)S(C)(=O)=O)c(CNc2nc(Nc3ccccc3)ncc2C(F)(F)F)c1 [Compound 66, N-[2-({[2-anilino-5-(trifluoromethyl)pyrimidin-4-yl]amino}methyl)-4-methylphenyl]-N-methylmethanesulfonamide]
1.83 nM | CN(c1ncccc1CNc1nc(Nc2ccc(OC(F)(F)F)cc2)ncc1C(F)(F)F)S(C)(=O)=O [Compound 284, N-methyl-N-[3-({[2-{[4-(trifluoromethoxy)phenyl]amino}-5-(trifluoromethyl)pyrimidin-4-yl]amino}rnethyl)pyridin-2-yl]methanesulfonamide]
2.62 nM | Cc1ncc(CNc2nc(Nc3ccccc3)ncc2C(F)(F)F)c(N(C)S(C)(=O)=O)n1 [Compound 79, N-[5-({[2-anilino-5-(trifluoromethyl)pyrimidin-4-yl]amino}methyl)-2-methylpyrimidln-4-yl]-N-methylmethanesulfonamide]
0.63 nM | CN(c1ncccc1CNc1nc(Nc2ccc(C(=O)N3CCCC(O)C3)cc2)ncc1C(F)(F)F)S(C)(=O)=O (stereo not drawn) [Compound 247, N-[3-({[2-({4-[(3-hydroxypiperidin-1-yl)carbonyl]phenyl}amino)-5-(trifluoromethyl)pyrimidin-4-yl]amino}methyl)pyridin-2-yl]-N-methylmethane-sulfonamide]
0.646 nM | COc1ccc(C(N)=O)cc1Nc1ncc(C(F)(F)F)c(NCc2ccc(C)nc2N(C)S(C)(=O)=O)n1 [Compound 305, 4-methoxy-3-({4-[({6-methyl-2-[methyl(methylsulfonyl)-amino]pyridin-3-yl}methyl)amino]-5-(trifluoromethyl)pyrimidin-2-yl}amino)benzamide]
6.81 nM | CCN(CCOC)C(=O)c1cccc(Nc2ncc(C(F)(F)F)c(NCc3cccnc3N(C)S(C)(=O)=O)n2)c1 [Compound 195, N-ethyl-N-(2-methoxyethyl)-3-({4-[({2-[methyl(methylsulfonyl)amino]pyridin-3-yl}methyl)amino]-5-(trifluoromethyl)pyrimidin-2-yl}amino)benzamide]
3.4 nM | CN(c1ncccc1CNc1nc(Nc2ccc(C(N)=O)cc2)ncc1C(F)(F)F)S(C)(=O)=O [Compound 19, 4-({4-[({2-[methyl(methylsulfonyl)amino]pyridin-3-yl}methyl)amino]-5-(trifluoromethyl)pyrimidin-2-yl}amino)benzamide]
2.1 nM | CN(CC1CC1)C(=O)c1ccc(Nc2ncc(C(F)(F)F)c(NCc3cccnc3N(C)S(C)(=O)=O)n2)cc1 [Compound 243]
0.84 nM | Cc1cc(N(C)S(C)(=O)=O)c(CNc2nc(Nc3ccc(C(N)=O)cc3)ncc2C(F)(F)F)cn1 [Compound 85, 4-({4-[({6-methyl-4-[methyl(methylsulfonyl)amino]pyridin-3-yl}methyl)amino]-5-(trifluoromethyl)pyrimidin-2-yl}amino)benzamide]
< 0.595 nM | CN(c1ncccc1CNc1nc(Nc2ccc(C(O)CO)cc2)ncc1C(F)(F)F)S(C)(=O)=O (stereo not drawn) [Compound 412, N-[3-({[2-{[4-(1,2-dihydroxyethyl)phenyl]amino}-5-(trifluoromethyl)pyrimidin-4-yl]amino}methyl)pyridin-2-yl]-N-methylmethane-sulfonamide]
1.49 nM | CNC(=O)c1ccc(Nc2ncc(C(F)(F)F)c(NCc3nccnc3N(C)S(C)(=O)=O)n2)c(F)c1 [Compound 369, 3-fluoro-N-methyl-4-({4-[({3-[methyl(methylsulfonyl)amino]pyrazin-2-yl}methyl)amino]-5-(trifluoromethyl)pyrimidin-2-yl}amino)benzamide]
0.59 nM | Cc1ccc(CNc2nc(Nc3ccccc3)ncc2C(F)(F)F)c(N(C)S(C)(=O)=O)n1 [Compound 51, N-[3-({[2-anilino-5-(trifluoromethyl)pyrimidin-4-yl]amino}methyl)-6-methylpyridin-2-yl]-N-methylmethanesulfonamide]
0.6 nM | CN(c1ncccc1CNc1nc(Nc2ccc(C(=O)N3CCC(F)(F)C3)cc2)ncc1C(F)(F)F)S(C)(=O)=O [Compound 266, N-[3-({[2-({4-[(3.3-difluoropyrrolidin-1-yl)carbonyl]phenyl}amino)-5-(trifluoromethyl)pyrimidin-4-yl]amino}methyl)pyridin-2-yl]-N-methylmethane-sulfonamide]
0.6 nM | CNC(=O)c1ccc(Nc2ncc(C(F)(F)F)c(NCc3nccnc3N(C)S(C)(=O)=O)n2)cc1F [Compound 370, 2-fluoro-N-methyl-4-({4-(({3-[methyl(methylsulfonyl)amino]pyrazin-2-yl}methyl)amino]-5-(trifluoromethyl)pyrimidin-2-yl}amino)benzamide]
4.66 nM | CN(C)CCN(C)C(=O)c1ccc(Nc2ncc(C(F)(F)F)c(NCc3cccnc3N(C)S(C)(=O)=O)n2)cc1 [Compound 274, N-[2-(dimethylamino)ethyl]-N-methyl-4-({4-[({2-[methyl(methylsulfonyl)amino]pyridin-3-yl}methyl)amino]-5-(trifluoromethyl)pyrimidin-2-yl}amino)benzamide]
1.94 nM | CCC(=O)Nc1cccc(Nc2ncc(C(F)(F)F)c(NCc3cccnc3N(C)S(C)(=O)=O)n2)c1 [Compound 371, N-(3-({4-[({2-[methyl(methylsulfonyl)amino]pyridin-3-yl}methyl)amino]-5-(trifluoromethyl)pyrimidin-2-yl}amino)phenyl]propanamide]
0.993 nM | Cc1cc(C(N)=O)ccc1Nc1ncc(C(F)(F)F)c(NCc2ncccc2N(C)S(C)(=O)=O)n1 [Compound 343, 3-methyl-4-({4-[({3-[methyl(methylsulfonyl)amino]pyridin-2-yl}methyl)amino]-5-(trifluoromethyl)pyrimidin-2-yl}amino)benzamide]
1.03 nM | Cc1cc(C(N)=O)ccc1Nc1ncc(C(F)(F)F)c(NCc2cccnc2N(C)S(C)(=O)=O)n1 [Compound 342, 3-methyl-4-({4-[({2-[methyl(methylsulfonyl)amino]pyridin-3-yl}methyl)amino]-5-(trifluoromethyl)pyrimidin-2-yl}amino)benzamide]
1.09 nM | CNC(=O)c1ccc(Nc2ncc(C(F)(F)F)c(NCc3cccnc3N(C)S(C)(=O)=O)n2)c(C)c1 [Compound 403, N,3-dimethyl-4-({4-[({2-[methyl(methylsulfonyl)amino]pyridin-3-yl}methyl)amino)-5-(trifluoromethyl)pyrimidin-2-yl}amino)benzamide]
2.22 nM | CN(c1ncccc1CNc1nc(Nc2cccc(CS(N)(=O)=O)c2)ncc1C(F)(F)F)S(C)(=O)=O [Compound 31, N-[3-({[2-({3-[(aminosulfonyl)methyl]phenyl}amino)-5-(trifluoronnethyl)pyrimidin-4-yl]amino}methyl)pyridin-2-yl]-N-methylmethane-sulfonatnide]
17.3 nM | Cc1cc(C(N)=O)ccc1Nc1ncc(C(F)(F)F)c(NCc2cc(N(C)S(C)(=O)=O)ccn2)n1 [Compound 405, 3-methyl-4-({4-[({4-[methyl(methylsulfonyl)amino]pyridin-2-yl}methyl)amino]-5-(trifluoromethyl)pyrimidin-2-yl}amino)benzamide]
1.06 nM | C[C@@H](CO)NC(=O)c1cccc(Nc2ncc(C(F)(F)F)c(NCc3cccnc3N(C)S(C)(=O)=O)n2)c1 [Compound 211, N-[(1S)-2-hydroxy-1-methylethyl]-3-({4-[({2-[methyl(methylsulfonyl)amino]pyridin-3-yl}methyl)amino]-5-(trifluoromelhyl)pyrimidin-2-yl}amino)benzamide]
2.47 nM | CC[C@H](CO)NC(=O)c1cccc(Nc2ncc(C(F)(F)F)c(NCc3cccnc3N(C)S(C)(=O)=O)n2)c1 [Compound 169, N-[(1R)-1-(hydroxymethyl)propyl]-3-({4-(({2-[methyl(methylsulfonyl)amino]pyridin-3-yl}methyl)amino]-5-(trifluoromethyl)pyrimidin-2-yl}amino)benzamide]
2.54 nM | CN(C)CCCNC(=O)c1cccc(Nc2ncc(C(F)(F)F)c(NCc3cccnc3N(C)S(C)(=O)=O)n2)c1 [Compound 145, N-[3-(dimethylamino)propyl]-3-({4-(({2-[methyl(methylsulfonyl)amino]pyridin-3-yl}methyl)amino]-5-(trifluoromethyl)pyrimidin-2-yl}amino)benzamide]
